Values quoted from earlier work in patent US20070123520A1 (priority 2005, published 2007).

What was measured:
[1] = system: influenza A viruses
[2] = in vivo
[3] = in vivo; remark: listed apart in the source
[4] = in vivo; remark: listed apart in the source
[5] = in vivo; remark: listed apart in the source
[6] = system: methemoglobinemia; details: in vivo, iv, 1 mg/kg
[7] = system: sheep; details: in vivo

NC12CC3CC(CC(C3)C1)C2 [amantadine]
activity against influenza A viruses [1]: activity

CN(C)c1ccc2nc3ccc(N(C)C)cc3[s+]c2c1.[Cl-] [methylene blue, 3,7-Bis(dimethylamino)-phenothiazin-5-ium chloride]
Side effects [2]: blue urine, occasional nausea, anemia and fever
side effects [2]: minimal side effects
overall elimination rate constant [3]: 0.0076 ± 0.0016 min⁻¹
absorption from the GI tract [4]: absorbed well
Oral absorption (range) ([4]; po): 53-97%
crossing of the blood-milk barrier [5]: crosses the blood-milk barrier easily
treatment of methemoglobinemia [6]: effective
methemoglobin production [7]: minimal
hematologic changes ([7]; 30 mg/kg): no hematologic changes

CCOC(=O)C1=C[C@@H](OC(CC)CC)[C@H](NC(C)=O)[C@@H](N)C1 [oseltamivir]
activity against influenza A viruses [1]: activity

CC(N)C12CC3CC(CC(C3)C1)C2 (stereo not shown) [rimantadine]
activity against influenza A viruses [1]: activity

CC(=O)N[C@H]1[C@H]([C@H](O)[C@H](O)CO)OC(C(=O)O)=C[C@@H]1N=C(N)N [zanamivir]
activity against influenza A viruses [1]: activity
